Data as given in patent US20140343000A1 (priority 2011, published 2014).
Counter-ions that a name gives are not always drawn.

What follows are compounds tested on recombinant NL4-3 virus (Renilla luciferase in nef, Gag P373S; NLRluc) in MT-2 cells (assay: whole plant or invertebrate). Details: Renilla, NL43.
Format: cell-based, HIV
In short: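 Cells grown in serum-supplemented RPMI were exposed to graded inhibitor concentrations during a 4-5 day infection. Antiviral effect was then derived from luminescence after adding a combined lysis and dual-luciferase substrate mixture to each well.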

Row | Structure (SMILES) | EC50
1 | C=C(C)[C@@H]1CC[C@]2(NCCN3CCS(=O)(=O)CC3)CC[C@]3(C)[C@H](CC[C@@H]4[C@@]5(C)CC=C(c6ccc(C(=O)O[C@H]7O[C@H](C(=O)O)[C@@H](O)[C@H](O)[C@H]7O)cc6)C(C)(C)[C@@H]5CC[C@]43C)[C@@H]12 [Example B7B, (2S,3S,4S,5R,6R)-6-((4-((1R,3aS,5aR,5bR,7aR,11aS,11bR,13aR,13bR)-3a-((2-(1,1-dioxidothiomorpholino)ethyl)amino)-5a,5b,8,8,11a-pentamethyl-1-(prop-1-en-2-yl)-2,3,3a,4,5,5a,5b,6,7,7a,8,11,11a,11b,12,13,13a,13b-octadecahydro-1H-cyclopenta[a]chrysen-9-yl)benzoyl)oxy)-3,4,5-trihydroxytetrahydro-2H-pyran-2-carboxylic acid] | < 100 nM

Same assay, conditions: Renilla, NL43, luciferase activity in cells infected for 4-5 days with NLRluc recombinants, serial dilutions of inhibitor; class symbols (key in Table 1); read-out: EC50

Row | Structure (SMILES) | EC50
2 | C=C(C)[C@@H]1CC[C@]2(NC(=O)N3CCCCC3)CC[C@]3(C)[C@H](CC[C@@H]4[C@@]5(C)CC=C(c6ccc(C(=O)O)cc6)C(C)(C)[C@@H]5CC[C@]43C)[C@@H]12 [Example 15, 4-((1R,3aS,5aR,5bR,7aR,11aS,11bR,13aR,13bR)-5a,5b,8,8,11a-pentamethyl-3a-(piperidine-1-carboxamido)-1-(prop-1-en-2-yl)-2,3,3a,4,5,5a,5b,6,7,7a,8,11,11a,11b,12,13,13a,13b-octadecahydro-1H-cyclopenta[a]chrysen-9-yl)benzoic acid] | < 100 nM
3 | C=C(C)[C@@H]1CC[C@]2(NC(=O)NCCC(=O)O)CC[C@]3(C)[C@H](CC[C@@H]4[C@@]5(C)CC=C(c6ccc(C(=O)O)cc6)C(C)(C)[C@@H]5CC[C@]43C)[C@@H]12 [Example 33, 4-((1R,3aS,5aR,5bR,7aR,11aS,11bR,13aR,13bR)-3a-(3-(2-carboxyethyl)ureido)-5a,5b,8,8,11a-pentamethyl-1-(prop-1-en-2-yl)-2,3,3a,4,5,5a,5b,6,7,7a,8,11,11a,11b,12,13,13a,13b-octadecahydro-1H-cyclopenta[a]chrysen-9-yl)benzoic acid] | < 100 nM
4 | C=C(C)[C@@H]1CC[C@]2(NC(=O)CN3CCSCC3)CC[C@]3(C)[C@H](CC[C@@H]4[C@@]5(C)CC=C(c6ccc(C(=O)O)cc6)C(C)(C)[C@@H]5CC[C@]43C)[C@@H]12 [Example 98, 4-((1R,3aS,5aR,5bR,7aR,11aS,11bR,13aR,13bR)-5a,5b,8,8,11a-pentamethyl-1-(prop-1-en-2-yl)-3a-(2-thiomorpholinoacetamido)-2,3,3a,4,5,5a,5b,6,7,7a,8,11,11a,11b,12,13,13a,13b-octadecahydro-1H-cyclopenta[a]chrysen-9-yl)benzoic acid] | < 100 nM
5 | C=C(C)[C@@H]1CC[C@]2(NC(N)=O)CC[C@]3(C)[C@H](CC[C@@H]4[C@@]5(C)CC=C(c6ccc(C(=O)O)cc6)C(C)(C)[C@@H]5CC[C@]43C)[C@@H]12 [Example 69-1, 4-((1R,3aS,5aR,5bR,7aR,11aS,11bR,13aR,13bR)-5a,5b,8,8,11a-pentamethyl-1-(prop-1-en-2-yl)-3a-ureido-2,3,3a,4,5,5a,5b,6,7,7a,8,11,11a,11b,12,13,13a,13b-octadecahydro-1H-cyclopenta[a]chrysen-9-yl)benzoic acid] | < 100 nM
6 | C=C(C)[C@@H]1CC[C@]2(NCCN3CCN(S(=O)(=O)c4ccc(OC)cc4)CC3)CC[C@]3(C)[C@H](CC[C@@H]4[C@@]5(C)CC=C(c6ccc(C(=O)O)cc6)C(C)(C)[C@@H]5CC[C@]43C)[C@@H]12 [Example B47, 4-((1R,3aS,5aR,5bR,7aR,11aS,11bR,13aR,13bR)-3a-((2-(4-((4-methoxyphenyl)sulfonyl)piperazin-1-yl)ethyl)amino)-5a,5b,8,8,11a-pentamethyl-1-(prop-1-en-2-yl)-2,3,3a,4,5,5a,5b,6,7,7a,8,11,11a,11b,12,13,13a,13b-octadecahydro-1H-cyclopenta[a]chrysen-9-yl)benzoic acid] | < 100 nM
7 | C=C(C)[C@@H]1CC[C@]2(NCCN3CCS(=O)(=O)CC3)CC[C@]3(C)[C@H](CC[C@@H]4[C@@]5(C)CC=C(c6ccc(C(=O)O)c(F)c6)C(C)(C)[C@@H]5CC[C@]43C)[C@@H]12 [Example A2, benzoic acid, 4-[(1R,3aS,5aR,5bR,7aR,11aS,11bR,13aR,13bR)-3a-[[2-(1,1-dioxido-4-thiomorpholinyl)ethyl]amino]-2,3,3a,4,5,5a,5b,6,7,7a,8,11,11a,11b,12,13,13a,13b-octadecahydro-5a,5b,8,8,11a-pentamethyl-1-(1-methylethenyl)-1H-cyclopenta[a]chrysen-9-yl]-2-fluoro-, HCl] | < 100 nM
8 | CC(C)[C@@H]1CC[C@]2(NC(=O)CN3CCS(=O)(=O)CC3)CC[C@]3(C)[C@H](CC[C@@H]4[C@@]5(C)CC=C(c6ccc(C(=O)O)cc6)C(C)(C)[C@@H]5CC[C@]43C)[C@@H]12 [Example 129, 4-((1S,3aS,5aR,5bR,7aR,11aS,11bR,13aR,13bR)-3a-(((1,1-dioxido-4-thiomorpholinyl)acetyl)amino)-1-isopropyl-5a,5b,8,8,11a-pentamethyl-2,3,3a,4,5,5a,5b,6,7,7a,8,11,11a,11b,12,13,13a,13b-octadecahydro-1H-cyclopenta[a]chrysen-9-yl)benzoic acid] | < 100 nM
9 | C=C(C)[C@@H]1CC[C@]2(NC(=O)CN[C@H](CO)c3ccccc3)CC[C@]3(C)[C@H](CC[C@@H]4[C@@]5(C)CC=C(c6ccc(C(=O)O)cc6)C(C)(C)[C@@H]5CC[C@]43C)[C@@H]12 [Example 108, 4-((1R,3aS,5aR,5bR,7aR,11aS,11bR,13aR,13bR)-3a-(2-((S)-2-hydroxy-1-phenylethylamino)acetamido)-5a,5b,8,8,11a-pentamethyl-1-(prop-1-en-2-yl)-2,3,3a,4,5,5a,5b,6,7,7a,8,11,11a,11b,12,13,13a,13b-octadecahydro-1H-cyclopenta[a]chrysen-9-yl)benzoic acid] | < 100 nM
10 | C=C(C)[C@@H]1CC[C@]2(NC(=O)N3CCN(C(=O)OC(C)(C)C)CC3CO)CC[C@]3(C)[C@H](CC[C@@H]4[C@@]5(C)CC=C(c6ccc(C(=O)O)cc6)C(C)(C)[C@@H]5CC[C@]43C)[C@@H]12 (mixture of isomers) [Example 61, 4-((1R,3aS,5aR,5bR,7aR,11aS,11bR,13aR,13bR)-3a-(4-(tert-butoxycarbonyl)-2-(hydroxymethyl)piperazine-1-carboxamido)-5a,5b,8,8,11a-pentamethyl-1-(prop-1-en-2-yl)-2,3,3a,4,5,5a,5b,6,7,7a,8,11,11a,11b,12,13,13a,13b-octadecahydro-1H-cyclopenta[a]chrysen-9-yl)benzoic acid] | < 100 nM
11 | CC(C)[C@@H]1CC[C@]2(N)CC[C@]3(C)[C@H](CC[C@@H]4[C@@]5(C)CC[C@H](c6ccc(C(=O)O)cc6)C(C)(C)[C@@H]5CC[C@]43C)[C@@H]12 [Example B3, 4-((1S,3aS,5aR,5bR,7aS,9S,11aS,11bR,13aR,13bR)-3a-amino-1-isopropyl-5a,5b,8,8,11a-pentamethylicosahydro-1H-cyclopenta[a]chrysen-9-yl)benzoic acid] | < 100 nM
12 | C=C(C)[C@@H]1CC[C@]2(Nc3nc(C(C)(C)C)cs3)CC[C@]3(C)[C@H](CC[C@@H]4[C@@]5(C)CC=C(c6ccc(C(=O)O)cc6)C(C)(C)[C@@H]5CC[C@]43C)[C@@H]12 [Example 185, 4-((1R,3aS,5aR,5bR,7aR,11aS,11bR,13aR,13bR)-3a-(4-tert-butylthiazol-2-ylamino)-5a,5b,8,8,11a-pentamethyl-1-(prop-1-en-2-yl)-2,3,3a,4,5,5a,5b,6,7,7a,8,11,11a,11b,12,13,13a,13b-octadecahydro-1H-cyclopenta[a]chrysen-9-yl)benzoic acid] | > 100 nM
13 | C=C(C)[C@@H]1CC[C@]2(NC(=O)N3CCN(C(=O)OC(C)(C)C)CC3C(=O)O)CC[C@]3(C)[C@H](CC[C@@H]4[C@@]5(C)CC=C(c6ccc(C(=O)O)cc6)C(C)(C)[C@@H]5CC[C@]43C)[C@@H]12 (mixture of isomers) [Example 62, 4-(tert-butoxycarbonyl)-1-((1R,3aS,5aR,5bR,7aR,11aS,11bR,13aR,13bR)-9-(4-carboxyphenyl)-5a,5b,8,8,11a-pentamethyl-1-(prop-1-en-2-yl)-2,3,3a,4,5,5a,5b,6,7,7a,8,11,11a,11b,12,13,13a,13b-octadecahydro-1H-cyclopenta[a]chrysen-3a-ylcarbamoyl)piperazine-2-carboxylic acid] | < 100 nM

Same assay, conditions: Renilla, NL43, luciferase activity in cells infected for 4-5 days with NLRluc recombinants, serial dilutions of inhibitor; numeric values; read-out: EC50

Row | Structure (SMILES) | EC50
14 | C=C(C)[C@@H]1CC[C@]2(NCCN3CCN(S(=O)(=O)c4cccc(OC)c4)CC3)CC[C@]3(C)[C@H](CC[C@@H]4[C@@]5(C)CC=C(c6ccc(C(=O)O)cc6)C(C)(C)[C@@H]5CC[C@]43C)[C@@H]12 [Example B45, 4-((1R,3aS,5aR,5bR,7aR,11aS,11bR,13aR,13bR)-3a-((2-(4-((3-methoxyphenyl)sulfonyl)piperazin-1-yl)ethyl)amino)-5a,5b,8,8,11a-pentamethyl-1-(prop-1-en-2-yl)-2,3,3a,4,5,5a,5b,6,7,7a,8,11,11a,11b,12,13,13a,13b-octadecahydro-1H-cyclopenta[a]chrysen-9-yl)benzoic acid] | 4 nM

Same assay, conditions: luciferase activity in cells infected for 4-5 days with NLRluc recombinants, serial dilutions of inhibitor; class symbols (key in Table 1); read-out: EC50

Row | Structure (SMILES) | EC50
15 | C=C(C)[C@@H]1CC[C@]2(NC(=O)C(C(C)C)N3CCS(=O)(=O)CC3)CC[C@]3(C)[C@H](CC[C@@H]4[C@@]5(C)CC=C(c6ccc(C(=O)O)cc6)C(C)(C)[C@@H]5CC[C@]43C)[C@@H]12 (single isomer, unassigned) [Example 111] | < 100 nM
